Results published in publication PMC2749862, “Glucocorticoids with different chemical structures but similar glucocorticoid receptor potency regulate subsets of common and unique genes in human trabecular meshwork cells” (BMC Medical Genomics, 2009).

What was measured:
glucocorticoid receptor [1] = target: T1, glucocorticoid receptor (Homo sapiens, UniProt P04150); experiment: GR radiolabeled competitive binding assay (IM-9 cell cytosol, [3H]dexamethasone; Cerep)
T1 sequence (P04150 524-777 limits assumed): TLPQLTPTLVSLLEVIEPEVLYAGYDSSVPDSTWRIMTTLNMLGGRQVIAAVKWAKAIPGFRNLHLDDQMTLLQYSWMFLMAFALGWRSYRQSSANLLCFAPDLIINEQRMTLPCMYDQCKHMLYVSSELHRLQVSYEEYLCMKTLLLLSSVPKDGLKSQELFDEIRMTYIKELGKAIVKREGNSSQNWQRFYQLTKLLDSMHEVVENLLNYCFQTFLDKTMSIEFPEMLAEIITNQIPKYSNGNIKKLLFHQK
Protocol: GR binding affinity assay was performed at Cerep Inc. (Celle l'Evescault, France), according to an established method. […] Nonspecific binding is determined in the presence of 10 μM triamcinolone. Following incubation, the samples are filtered rapidly under vacuum through glass fiber filters (GF/B, Packard) presoaked with 0.3% Poly(ethyleneimine) and rinsed several times with ice-cold 50 mM Tris-HCl using a 96-sample cell harvester (Unifilter, Packard). The filters are dried and counted for radioactivity in a scintillation counter (Topcount, Packard) using a scintillation cocktail (Microscint 0, Packard). The results are expressed as percent inhibition of the control radioligand specific binding. The IC50 values (concentration causing half-maximal inhibition of control specific binding) and Hill coefficients (nH) were determined by non-linear regression analysis of the competition curves generated with mean replicate values using Hill equation curve fitting (Y = D + [(A - D)/(1 + (C/C50)^nH)], where Y = specific binding, D = minimum specific binding, A = maximum specific binding, C = compound concentration, C50 = IC50, and nH = slope factor). […] The inhibition constants (Ki) were calculated using the Cheng Prusoff equation (Ki = IC50/(1+(L/KD)), where L = concentration of radioligand in the assay, and KD = affinity of the radioligand for the receptor). […] The GR binding assay was performed in duplicate.

TM 86 cells = experiment: Microarray gene expression profiling in TM 86 cells (with IPA and GoMiner analysis); type: cell-based, human; details: 1 μM, 24 hr
Excerpt: (§1) Cells were maintained in low glucose Dulbecco's Modified Eagle Medium (DMEM, Invitrogen, Carlsbad, CA) supplemented with 10% (vol/vol) FBS (American Type Culture Collection, Manassas, VA), 1% (vol/vol) penicillin and streptomycin (Invitrogen). Cells from the human HeLa cervical adenocarcinoma cell line (American Type Culture Collection) were maintained in α-MEM medium supplemented with 10% (v/v) FBS, 1% (v/v) penicillin and streptomycin. All cells were used within passages 3 to 6. […] Cells were maintained for one week with medium renewal every other day. The day before the experiment, confluent TM were washed once with phosphate-buffered saline (PBS) and then the cells were maintained in 1% FBS-containing medium with antibiotics. […] Control cells were treated with 0.1%(v/v) dimethylsulfoxide (DMSO). At the end of GC treatment, supernatant was discarded and the cell monolayer was kept frozen at -80°C for subsequent total RNA extraction and gene expression profiling. […] Briefly, RNA was isolated from flash frozen cell culture plates using RNeasy Mini columns (Qiagen, Valencia, CA) according to the manufacturer's protocol. There were three biological replicates per treatment condition. The quantity and purity of the extracted RNA was evaluated using a NanoDrop ND-1000 spectrophotometer (Nanodrop Technologies, Wilmington, DE, USA) and its integrity measured using an Agilent Bioanalyzer. […] The amount and quality of the fluorescently labeled cRNA was assessed using a NanoDrop ND-1000 spectrophotometer and an Agilent Bioanalyzer. An equal amount of Cy3-labeled cRNA (1.6 μg) was hybridized to the Agilent Human Whole Genome Oligo Microarray (Agilent Technologies) for 17 hours, prior to washing and scanning. Data were extracted from scanned images using Agilent's Feature Extraction Software (Agilent Technologies) using default settings. […] The full complement of microarray data has been deposited in the NIH/NLM Gene Expression Omnibus (GEO accession # GSE16643). […] The lists of differentially expressed genes were also applied to global functional, network and canonical pathway analyses using Ingenuity Pathway Analysis (Ingenuity® Systems, Redwood City, CA).

TM 93 cells = experiment: Microarray gene expression profiling in TM 93 cells (with IPA and GoMiner analysis); type: cell-based, human; details: 1 μM, 24 hr
Excerpt: as §1

glucocorticoid receptor [2] = target: T1, glucocorticoid receptor; experiment: GeneBLAzer beta-lactamase reporter gene assay, GR transactivation in MMTV-bla HeLa CellSensor cells; type: cell-based; details: 5 hr treatment
Protocol: GR transactivation activity was assessed by the Invitrogen SelectScreen Profiling Service (Madison, WI), using Invitrogen GeneBLAzer beta-lactamase reporter gene technology. Profiling was performed using human HeLa cells stably transfected with an expression construct containing β-lactamase cDNA under the control of the MMTV response element previously identified as a GR response element (MMTV-bla HeLa CellSensor®). The MMTV-bla HeLa cells were plated in 384-well plates in 32 μl assay medium (OPTIMEM + 1% charcoal/dextran stripped FBS) at a density of 10,000 cells/well and incubated overnight. […] The β-lactamase activity of each sample was determined by adding 8 μl of 6-fold concentrated LiveBLAzer™ substrate solution to the samples followed by two hours of incubation at room temperature in a Tecan Safire2 plate reader using the appropriate LiveBLAzer™ filter settings. GC treatment was performed in 15-point dose response using a three-fold dilution series starting with a maximum compound concentration of 10 μM. Each data point represents a triplicate sample (n = 3). Assay reproducibility was determined by calculating Z' values for untreated vs. maximum stimulation. The GeneBLAzer assay was performed twice.

[3] = human, following local administration; cited from earlier work

For CC1(C)O[C@@H]2C[C@H]3[C@@H]4CCC5=CC(=O)C=C[C@]5(C)[C@@]4(F)[C@@H](O)C[C@]3(C)[C@]2(C(=O)CO)O1 [TA, triamcinolone acetonide], the “nH (Hill coefficient)” value (glucocorticoid receptor [1]; IM-9 cell cytosol competition curves) was 1.05 ± 0.07, the Ki (glucocorticoid receptor [1]; IM-9 cell cytosol, calculated by Cheng Prusoff equation) was 0.72 ± 0.24 nM and the IC50 (glucocorticoid receptor [1]; read-out: GR binding affinity IC50) was 1.45 ± 0.5 nM. The “function of significantly regulated transcripts (Ingenuity Pathway Analysis)” value (TM 86 cells) was “cell morphology”, the “number of genes uniquely regulated by each GC” value (TM 86 cells) was 388 and the “significantly regulated biological process (GoMiner gene ontology)” value (TM 86 cells) was “mitotic cell cycle”. The “ANGPTL4 FC (fold change)” value (TM 86 cells; microarray) was 7.9 fold, the “ANGPTL7 FC (fold change)” value (TM 86 cells; microarray) was 26.5 fold and the “AQP1 FC (fold change)” value (TM 86 cells; microarray) was -5.1 fold. For the same compound, the “CCRL1 FC (fold change)” value (TM 86 cells; microarray) was -3.4 fold, the “CXADR FC (fold change)” value (TM 86 cells; microarray) was -4.8 fold and the “ENST00000344214 FC (fold change)” value (TM 86 cells; microarray) was -3.1 fold. For the same compound, the “FKBP5 FC (fold change)” value (TM 86 cells; microarray) was 12.5 fold, the “GABRB1 FC (fold change)” value (TM 86 cells; microarray) was -4.9 fold and the “ITGA10 FC (fold change)” value (TM 86 cells; microarray) was 17.7 fold. The “KAL1 FC (fold change)” value (TM 86 cells; microarray) was -6.7 fold, the “KCNB1 FC (fold change)” value (TM 86 cells; microarray) was 19.9 fold and the “KIF4A FC (fold change)” value (TM 86 cells; microarray) was -4.1 fold. For the same compound, the “KLF15 FC (fold change)” value (TM 86 cells; microarray) was 11.1 fold, the “LSP1 FC (fold change)” value (TM 86 cells; microarray) was 15.4 fold and the “MXRA5 FC (fold change)” value (TM 86 cells; microarray) was -5.4 fold. For the same compound, the “MYOC FC (fold change)” value (TM 86 cells; microarray) was 6.7 fold, the “PCDH19 FC (fold change)” value (TM 86 cells; microarray) was -5.0 fold and the “PER3 FC (fold change)” value (TM 86 cells; microarray) was -7.0 fold. For the same compound, the “RASL11B FC (fold change)” value (TM 86 cells; microarray) was -4.0 fold, the “RGC32 FC (fold change)” value (TM 86 cells; microarray) was >100 fold and the “SAA1 FC (fold change)” value (TM 86 cells; microarray) was 35.3 fold. The “ZBTB16 FC (fold change)” value (TM 86 cells; microarray) was 8.1 fold, the “function of significantly regulated genes (Ingenuity Pathway Analysis)” value (TM 93 cells) was “cell adhesion” and the “number of genes uniquely regulated by each GC” value (TM 93 cells) was 555. For the same compound, the “significantly regulated biological process (GoMiner gene ontology)” value (TM 93 cells) was “smooth muscle cell proliferation”, the “ANGPTL4 FC (fold change)” value (TM 93 cells; microarray) was 5.3 fold and the “ANGPTL7 FC (fold change)” value (TM 93 cells; microarray) was 20.5 fold. The “AQP1 FC (fold change)” value (TM 93 cells; microarray) was -2.8 fold, the “CCRL1 FC (fold change)” value (TM 93 cells; microarray) was -2.1 fold and the “CXADR FC (fold change)” value (TM 93 cells; microarray) was -2.6 fold. The “FKBP5 FC (fold change)” value (TM 93 cells; microarray) was 5.8 fold, the “GABRB1 FC (fold change)” value (TM 93 cells; microarray) was -2.6 fold and the “ITGA10 FC (fold change)” value (TM 93 cells; microarray) was 5.6 fold. For the same compound, the “KAL1 FC (fold change)” value (TM 93 cells; microarray) was -3.3 fold, the “KCNB1 FC (fold change)” value (TM 93 cells; microarray) was 11.3 fold and the “KIF4A FC (fold change)” value (TM 93 cells; microarray) was -2.3 fold. The “KLF15 FC (fold change)” value (TM 93 cells; microarray) was 3.9 fold, the “MXRA5 FC (fold change)” value (TM 93 cells; microarray) was -4.5 fold and the “MYOC FC (fold change)” value (TM 93 cells; microarray) was 2.6 fold. The “OCA2 FC (fold change)” value (TM 93 cells; microarray) was >100 fold, the “PCDH19 FC (fold change)” value (TM 93 cells; microarray) was -3.3 fold and the “PER3 FC (fold change)” value (TM 93 cells; microarray) was -3.8 fold. For the same compound, the “PF4 FC (fold change)” value (TM 93 cells; microarray) was 4.4 fold, the “RGC32 FC (fold change)” value (TM 93 cells; microarray) was 19.9 fold and the “SAA1 FC (fold change)” value (TM 93 cells; microarray) was 11.9 fold. The “ZBTB16 FC (fold change)” value (TM 93 cells; microarray) was 5.5 fold, the EC50 (glucocorticoid receptor [2]) was 1.29 ± 0.28 nM and the ocular tissue concentrations [3] was > 1 µM.
